One data set deals with HIV-1 (IIIB). As to the kind of experiment: Antiviral assay in MT-4 cells. The data set is classed as cell-based. The conditions noted are these: HIV-1 IIIB infected MT-4 cells, 5 days, Cell Titer Glo, read-out: MT4 EC50. An outline of the steps: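 MT-4 cells infected with a 1:250 dilution of HIV-1 IIIB stock were incubated with serially diluted (1:3) compound for 5 days at 37 °C. Viability read by Cell Titer Glo luminescence; EC50 is the concentration giving 50% decrease in signal, from sigmoidal dose-response fits.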
(ATP-based viability assays read luminescence as a measure of living cells.)

A short description of data set [1]: Cytotoxicity assay in MT-4 cells. Format: cell-based. Particulars: human, uninfected MT-4 cells, 5 days, Cell Titer Glo; read-out: CC50. An outline of the steps: (§1)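 Uninfected MT-4 cells were incubated with 1:3 serially diluted compound in RPMI/10% FBS for 5 days at 37° C. Viability was read by CellTiter-Glo luminescence, with 10 μM puromycin as the baseline cytotoxicity control. Values are the concentration giving a 50% decrease in luminescence, from sigmoidal dose-response fits.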

Data set [2] in a line: Monkey PK after single-dose intravenous infusion. The data set is classed as in vivo, monkeys. The conditions noted are these: for half-life: cynomolgus, monkeys, single-dose intravenous infusion for 30 minutes, plasma, read-out: Cyno half-life (converted). Here is the method:
Test compound PK was determined in monkeys (Labcorp, Madison, Wis.) following a single-dose intravenous infusion for 30 minutes. The dosing vehicle was 10% N-methylpyrrolidone; 50% polyethylene glycol 300 and 40% water (pH 8.3) for intravenous administration in monkeys. Serial blood samples were collected at predose, 0.25, 0.48 (before end of infusion), 0.58, 0.75, 1, 1.5, 2, 4, 8, 12, 24, 48, 72, 96, 120, 144, and 168 hours postdose (based on start of infusion) and plasma test compound concentrations were quantified using an LC-MS/MS method.
Nonclinical plasma samples were prepared by addition of 200 μl cold acetonitrile/internal standard solution to 96-well plates containing 50 μl aliquots of each plasma sample. After protein precipitation, each of the supernatants (50 μl) were transferred to clean 96-well plates and diluted with 450 μl of water. The sample injection volume was 2 μl. Samples were analyzed by a multiple reaction monitoring LC-MS/MS method. LC-MS system consisted of a Cohesive LX-2 multiplex with two identical DIONEX UltiMate 3000 RS pumps, Hypersil Gold C18 HPLC column (50×2.1 mm, […]; Thermo Fisher Scientific), and the ABSciex QTRAP5500 Mass Spectrometer LC-MS/MS system. Chromatography was performed using 0.1% formic acid and 1% isopropyl alcohol in aqueous solution (MP A), and 0.1% formic acid and 1% isopropyl alcohol in acetonitrile (MP B).
Plasma PK parameters for test compounds in monkeys were estimated via noncompartmental analysis using the software program Phoenix WinNonlin, version 6.3 (Pharsight Corporation, Mountain View, Calif.). The following plasma PK parameters were estimated in nonclinical species (as appropriate): observed peak plasma concentration (Cmax), time to reach Cmax (Tmax), last quantifiable plasma concentration (Clast), tin, time of Clast (Tlast), area under the plasma concentration-time curve (AUC) from time 0 to Clast (AUClast), AUC from time 0 to infinity (AUCinf), CL, mean residence time (MRT), and volume of distribution at steady state (Vss).

The subject of the next data set is pLai RLuc reporter virus. As to the kind of experiment: HIV MT-4 serum shift antiviral reporter assay. Format: cell-based. In a few lines:
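MT-4 cells pre-infected with pLai RLuc virus for 2 h at 37 °C, then incubated 72 h at 37 °C with compound in medium (RPMI, 10% FBS) with or without 50% human serum; Renilla luminescence read. EC50 from sigmoidal fit; serum shift = EC50(HS/CCM)/EC50(CCM).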

Another data set relates to MT-4 cells. As to the kind of experiment: Cytotoxicity assay in MT-4 cells. Format: cell-based. In a few lines: as §1
[3] abbreviates: Human immunodeficiency virus 1, IIIB, MT4, 120 h.
[4] abbreviates: Human immunodeficiency virus 1, 72 h, read-out: RLUC 50% HS (nM), HS/CCM: 50% human serum, 72 h, Renilla Glo.
Setting [5] is: Human immunodeficiency virus 1, 72 h, read-out: RLUC CCM (nM), cell culture media (RPMI, 10% FBS), 72 h, Renilla Glo.
[6] abbreviates: read-out: RLUC 50% HS, HS/CCM: 50% human serum, 72 h, Renilla Glo.
[7] abbreviates: HS/CCM: 50% human serum, 72 h, Renilla Glo, read-out: RLUC 50% HS.
Setting [8] is: cell culture media (RPMI, 10% FBS), 72 h, Renilla Glo, read-out: RLUC CCM.

Read-outs that look alike come from different tables or passages of the source.

In the case of `C[C@@H]1C=C[C@H](C)N2CN1n1cc(C(=O)NCc3c(F)cc(F)cc3F)c(=O)c(O)c1C2=O` [Example C24, (1S,2R,5S)-8-hydroxy-2,5-dimethyl-7,9-dioxo-N-(2,4,6-trifluorobenzyl)-2,5,7,9-tetrahydro-1,6-methanopyrido[1,2-b][1,2,5]triazonine-10-carboxamide], the EC50 with HIV-1 (IIIB) (setting [3]) worked out at 0.98 nM; in the data set on pLai RLuc reporter virus (setting [4]), 328 nM; with pLai RLuc reporter virus (setting [5]), 0.44 nM. In data set [1], the CC50 (as a rule, the concentration giving 50% cytotoxicity) at 5 days was 11400 nM. Moreover, the half-life (usually the time in which the quantity being followed falls by half) in data set [2] is 57 h.

As for `C[C@H]1CC[C@H](C)N2CN1C(=O)c1c(O)c(=O)c(C(=O)NCc3c(F)cc(F)cc3F)cn12` [Example C27, (1S,2R,5S)-8-hydroxy-2,5-dimethyl-7,9-dioxo-N-(2,4,6-trifluorobenzyl)-2,3,4,5,7,9-hexahydro-1,6-methanopyrido[1,2-b][1,2,5]triazonine-10-carboxamide], the EC50 with HIV-1 (IIIB) (setting [3]) is 1.3 nM; in the data set on pLai RLuc reporter virus (setting [5]) it was 0.55 nM; in the data set with pLai RLuc reporter virus (setting [6]) it was 594 nM. Also, the CC50 at 5 days in data set [1] was 9550 nM. For the same molecule, the half-life in data set [2] was 48 h.

For the molecule `O=C(NCc1c(F)cc(F)cc1F)c1cn2c(c(O)c1=O)C(=O)N1CCCCN2C1` [Example C109, (1S)-8-hydroxy-7,9-dioxo-N-(2,4,6-trifluorobenzyl)-2,3,4,5,7,9-hexahydro-1,6-methanopyrido[1,2-b][1,2,5]triazonine-10-carboxamide], the results for the EC50 with HIV-1 (IIIB), with pLai RLuc reporter virus (setting [7]) and with pLai RLuc reporter virus (setting [8]) were 1.2 nM, 11.4 nM and 0.62 nM, respectively. In the data set with MT-4 cells, this molecule came in with a CC50 of 15200 nM. Moreover, the “Cyno half-life” value in data set [2] (in vivo, iv) was 4.7 h.

Turning to `C[C@H]1CC[C@H](C)N2CN1C(=O)c1c(O)c(=O)c(C(=O)NCc3ccc(F)cc3F)cn12` [Example C31, (1S,2S,5S)—N-(2,4-difluorobenzyl)-8-hydroxy-2,5-dimethyl-7,9-dioxo-2,3,4,5,7,9-hexahydro-1,6-methanopyrido[1,2-b][1,2,5]triazonine-10-carboxamide], the EC50 with HIV-1 (IIIB) (setting [3]) was found to be 0.9 nM; with pLai RLuc reporter virus (setting [4]) it was 328 nM; in the data set on pLai RLuc reporter virus (setting [5]), 0.41 nM. Besides, in data set [1], the CC50 at 5 days is 7850 nM. The half-life in data set [2] is 9 h.

Turning to `C[C@@H]1C=C[C@H](C)N2CN1n1cc(C(=O)NCc3ccc(F)cc3F)c(=O)c(O)c1C2=O` [Example C29, (1S,2R,5S)—N-(2,4-difluorobenzyl)-8-hydroxy-2,5-dimethyl-7,9-dioxo-2,5,7,9-tetrahydro-1,6-methanopyrido[1,2-b][1,2,5]triazonine-10-carboxamide], the EC50 came out at 0.71 nM with HIV-1 (IIIB) (setting [3]), 169 nM in the data set with pLai RLuc reporter virus (setting [4]) and 0.31 nM in the data set on pLai RLuc reporter virus (setting [5]). Further, in data set [1], the CC50 at 5 days stood at 18700 nM. For the same molecule, the half-life in data set [2] was 32 h.

For the molecule `C[C@H]1C=C[C@H](C)N2CN1C(=O)c1c(O)c(=O)c(C(=O)NCc3c(F)cc(F)cc3F)cn12` [Example C25, (1S,2S,5S)-8-hydroxy-2,5-dimethyl-7,9-dioxo-N-(2,4,6-trifluorobenzyl)-2,5,7,9-tetrahydro-1,6-methanopyrido[1,2-b][1,2,5]triazonine-10-carboxamide], the figures for the EC50 with HIV-1 (IIIB), in the data set on pLai RLuc reporter virus (setting [5]) and in the data set on pLai RLuc reporter virus (setting [6]) were 1 nM, 0.47 nM and 68 nM, respectively. The CC50 at 5 days in data set [1] stood at 17400 nM. Moreover, the half-life in data set [2] is 55 h.

For `CC[C@@H]1C=C[C@H](C)N2CN1n1cc(C(=O)NCc3c(F)cc(F)cc3F)c(=O)c(O)c1C2=O` [Example C72, (1S,2R,5S)-2-ethyl-8-hydroxy-5-methyl-7,9-dioxo-N-(2,4,6-trifluorobenzyl)-2,5,7,9-tetrahydro-1,6-methanopyrido[1,2-b][1,2,5]triazonine-10-carboxamide], the values for the EC50 with HIV-1 (IIIB) (setting [3]), in the data set on pLai RLuc reporter virus (setting [4]) and in the data set on pLai RLuc reporter virus (setting [5]) were 0.5 nM, 251 nM and 0.33 nM, respectively. Besides, the CC50 at 5 days in data set [1] was found to be 13800 nM. Further, the half-life in data set [2] is 51 h.

With `C[C@@H]1CC[C@H](C)N2CN1n1cc(C(=O)NCc3ccc(F)cc3F)c(=O)c(O)c1C2=O` [Example C37, (1S,2R,5S)—N-(2,4-difluorobenzyl)-8-hydroxy-2,5-dimethyl-7,9-dioxo-2,3,4,5,7,9-hexahydro-1,6-methanopyrido[1,2-b][1,2,5]triazonine-10-carboxamide], the results for the EC50 in the data set on HIV-1 (IIIB) (setting [3]), in the data set with pLai RLuc reporter virus (setting [4]) and in the data set on pLai RLuc reporter virus (setting [5]) were 1.3 nM, 325 nM and 0.87 nM, respectively. Besides, the CC50 at 5 days in data set [1] amounted to 8570 nM. Moreover, in data set [2], the half-life was 22 h.

`C[C@H]1C=C[C@@H](CF)N2CN1C(=O)c1c(O)c(=O)c(C(=O)NCc3ccc(F)cc3F)cn12` [Example C44, (2S,5S)—N-(2,4-difluorobenzyl)-2-(fluoromethyl)-8-hydroxy-5-methyl-7,9-dioxo-2,5,7,9-tetrahydro-1,6-methanopyrido[1,2-b][1,2,5]triazonine-10-carboxamide]: the EC50 with HIV-1 (IIIB) (setting [3]) worked out at 1.2 nM. For the same molecule, in data set [1], the CC50 at 5 days was found to be 15000 nM. For the same molecule, the half-life in data set [2] was 29 h.

With `C[C@H]1C=C[C@@H](CF)N2CN1C(=O)c1c(O)c(=O)c(C(=O)NCc3c(F)cc(F)cc3F)cn12` [Example C76, (1S,2S,5S)-2-(fluoromethyl)-8-hydroxy-5-methyl-7,9-dioxo-N-(2,4,6-trifluorobenzyl)-2,5,7,9-tetrahydro-1,6-methanopyrido[1,2-b][1,2,5]triazonine-10-carboxamide], the EC50 in the data set with HIV-1 (IIIB) (setting [3]) came to 1 nM; in the data set on pLai RLuc reporter virus (setting [4]) it was 265 nM; in the data set on pLai RLuc reporter virus (setting [5]), 0.42 nM. The CC50 at 5 days in data set [1] was determined as 16400 nM. In addition, the half-life in data set [2] is 60 h.

`C[C@@H]1C=C[C@H](C)N2CN1n1cc(C(=O)NCc3ccc(F)c(Cl)c3F)c(=O)c(O)c1C2=O` [Example C63, (1S,2R,5S)—N-(3-chloro-2,4-difluorobenzyl)-8-hydroxy-2,5-dimethyl-7,9-dioxo-2,5,7,9-tetrahydro-1,6-methanopyrido[1,2-b][1,2,5]triazonine-10-carboxamide]: the half-life in data set [2] is 110 h.

In the case of `C[C@H]1CC[C@@H](C(F)F)N2CN1C(=O)c1c(O)c(=O)c(C(=O)NCc3c(F)cc(F)cc3F)cn12` [Example C78, (1S,2S,5S)-2-(difluoromethyl)-8-hydroxy-5-methyl-7,9-dioxo-N-(2,4,6-trifluorobenzyl)-2,3,4,5,7,9-hexahydro-1,6-methanopyrido[1,2-b][1,2,5]triazonine-10-carboxamide], the EC50 was determined as 1.6 nM with HIV-1 (IIIB), 1040 nM with pLai RLuc reporter virus (setting [7]) and 0.42 nM in the data set on pLai RLuc reporter virus (setting [8]). In addition, in the data set with MT-4 cells (uninfected MT-4 cells, 5 days, Cell Titer Glo, read-out: CC50), the CC50 is 13700 nM.

As to `C[C@H]1C=C[C@H](C)N2CN1C(=O)c1c(O)c(=O)c(C(=O)NCc3ccc(F)cc3F)cn12` [Example C30, (1S,2S,5S)-8-hydroxy-2,5-dimethyl-7,9-dioxo-N-(2,4-difluorobenzyl)-2,5,7,9-tetrahydro-1,6-methanopyrido[1,2-b][1,2,5]triazonine-10-carboxamide], the EC50 in the data set with HIV-1 (IIIB) (setting [3]) worked out at 1.3 nM; with pLai RLuc reporter virus (setting [4]), 29 nM; in the data set with pLai RLuc reporter virus (setting [5]), 0.32 nM. For the same molecule, in data set [1], the CC50 at 5 days came to 35800 nM. For the same molecule, the half-life in data set [2] is 6 h.

For the origin of these results see patent US11613546B2, “Substituted pyridotriazine compounds and uses thereof” (Gilead Sciences, Inc., priority 2021, dated 2023).
